Several values for one entry are separate records, joined by “and”; a condition that tells them apart may be missing. Equal entries are not always repeated.
Tests used:
[1] = system: HIV Rev – HIV RNA complex; set-up: method as in PMID 25503645, PMID 17967062; settings: Figure 1; cited from earlier work
[2] = system: C. albicans ATCC 10231; assay: MIC by twofold serial dilution, C. albicans; assay type: cell-based; settings: Candida albicans, ATCC10231; 24 h, 35 °C; read-out: MIC (Mean ± SE) C. albicans ATCC 10231
Experimental: (§1) Candida albicans ATCC 10231, Pseudomonas aeruginosa ATCC 27853, and Staphylococcus aureus ATCC 29213 strains were obtained from the American Type Culture Collection (ATCC; Rockville, MD, USA). The subculture and inoculum preparation were performed according to CLSI M27-A3 for C. albicans on yeast extract peptone dextrose (YPD) agar (HiMedia, Mumbai, Maharashtra, India) and RPMI-1640 medium (PanEco, Moscow, Russia) with MOPS (3-(N-morpholino) propanesulfonic acid, >99.5%; PanEco, Moscow, Russia), and M7-A11 for P. aeruginosa and S. aureus on Mueller-Hinton agar (MHA; HiMedia, Mumbai, Maharashtra, India) and Mueller-Hinton broth (MHB; HiMedia, Mumbai, Maharashtra, India). The stock cell concentrations of fungus and bacteria were 1 × 10^6 and 1 × 10^8 cells/mL, respectively. A working suspension of C. albicans (5.0 × 10^2 cells/mL) was prepared by two-step dilution of the broth concentration with the RPMI-1640 medium. Assay suspensions of P. aeruginosa and S. aureus (1.0 × 10^6 cells/mL) were prepared by diluting the concentration with Mueller-Hinton broth (HiMedia, Mumbai, Maharashtra, India). Amphotericin B (Sigma-Aldrich, Burlington, MA, USA) and gentamicin (Sigma-Aldrich, Burlington, MA, USA) were used as secondary pharmaceutical standards.
(§2) The minimum inhibitory concentration (MIC) was determined by the twofold serial dilution method, according to CLSI M27-A3 [33] and M07-A11 [34], in three independent experiments with four replicates each. Amphotericin B was used as a positive control for fungus; gentamicin was used as a positive control for bacteria. Stock solutions except gentamicin were prepared in DMSO at a concentration of 6400 μg/mL. Gentanicin was solubilized in sterile water at a concentration of 1280 μg/mL. Stock solutions of the tested substances were diluted to the final concentrations in the assay medium and 100 μL of each sample was added to the wells of 96-well plates, and then 100 μL of inoculum was added. Rows 11 and 12 were left for the negative control (medium with inoculum without the drug) and sterility control. The plates were incubated for 24 h at 35 °C in the case of C. albicans and at 37 °C in the case of P. aeruginosa and S. aureus. The tested concentration for gentamicin ranged from 0.0625 to 32 μg/mL; for other compounds, it ranged from 0.125 to 64 μg/mL. The MIC value was determined using spectrophotometer. The MIC was taken to be the lowest drug concentration that caused complete inhibition of microorganism growth compared to the control. The final MIC values were reported as the means with standard error (SE). Standard errors for µg/mL values less than 0.01 were excluded; standard errors for µM values less than 0.1 were excluded (Table 3).

[3] = system: HIV-1 (subtype B) in MT-4 cells; assay: Antigen p24 assay in HIV-infected MT-4 cells; assay type: cell-based; settings: Human immunodeficiency virus 1, MT4; HIV-1 899A strain (subtype B), third day after infection
Experimental: The human MT-4 lymphoblastoid cells were cultured in RPMI 1640 medium supplemented with 10% fetal bovine serum (FBS) (HyClone, Logan, UT, USA), 2 mM L-glutamine, 50 U/mL penicillin, and 50 μg/mL streptomycin in a humidified atmosphere of 5% CO2 at 37 °C. The cells were re-seeded at a density of 3.0 × 10^5 cells/mL every three days. The HIV-1_899A strain (subtype B) was used from the collection of human immunodeficiency virus strains of the D.I. Ivanovsky Institute of Virology, N. F. Gamaleya National Research Center of Epidemiology and Microbiology, Ministry of Health, Moscow, Russia. The commercial drug Efavirenz (EFV), a non-nucleoside inhibitor of HIV reverse transcriptase, was used as a positive control. HIV-1 was added to the cells at 0.1 CCID50 (50% cell culture infectious dose). The cells, both infected and non-infected, were then incubated at 37 °C in a humidified atmosphere containing 5% CO2 for a 40 min period, after which the cells were washed twice in serum-free RPMI 1640 and plated into the wells of a 96-well plate. The tested compounds were then added to the cells at concentrations from 0.5 μM to 100 μM. The final ethanol concentration was 1% v/v. On the third day after infection, the culture fluid was collected for determining the amount of p24 antigen by enzyme immunoassay analysis using a commercial test system kit (Genscreen ULTRA HIV Ag-Ab, Bio-Rad, Hercules, CA, USA). Cell viability was measured by MTT assay.

[4] = system: P. aeruginosa ATCC 27853; assay: MIC by twofold serial dilution, P. aeruginosa; assay type: cell-based; settings: Pseudomonas aeruginosa, ATCC27853; 24 h, 37 °C; read-out: MIC (Mean ± SE) P. aeruginosa ATCC 27853
Experimental: as §1, §2

[5] = system: S. aureus ATCC 29213; assay: MIC by twofold serial dilution, S. aureus; assay type: cell-based; settings: Staphylococcus aureus, ATCC29213, 24 h, 37 °C, read-out: MIC (Mean ± SE) S. aureus ATCC 29213
Experimental: as §1, §2

[6] = biological target: T1, recombinant HIV-1 Integrase (strand transfer) (Human immunodeficiency virus type 1 group M subtype B, UniProt P04585); set-up: method as in PMID 12234864; settings: positive control, known value; cited from earlier work
T1 construct: The recombinant HIV-1 Integrase (In) was isolated from the Rosetta Escherichia coli producer strain; made in house; host or cells: Escherichia coli Rosetta

[7] = system: Ku70; set-up: method as in PMID 27130816; settings: read-out: IC50, Ku70 interaction with DNA; cited from earlier work

Compound: FC(F)(F)Oc1ccc(Nc2ccc3cccc(Cl)c3n2)cc1 [ABX464]
- IC50 [1]: 0.1 to 0.5 µM

Compound: C[C@@H]1[C@H](O)[C@@H](C)/C=C/C=C/C=C/C=C/C=C/C=C/C=C/[C@H](O[C@@H]2O[C@H](C)[C@@H](O)[C@H](N)[C@@H]2O)C[C@@H]2O[C@](O)(C[C@@H](O)C[C@@H](O)[C@H](O)CC[C@@H](O)C[C@@H](O)CC(=O)O[C@H]1C)C[C@H](O)[C@H]2C(=O)O [Amphotericin B, reference compound]
- MIC [2]: 0.4 µg/mL and 0.4 µM

Compound: O=C1Nc2ccc(Cl)cc2[C@@](C#CC2CC2)(C(F)(F)F)O1 [EFV, Efavirenz, reference compound]
- IC50 [3]: < 0.05 µM

Compound: CNC(C)C1CCC(N)C(OC2C(N)CC(N)C(OC3OCC(C)(O)C(NC)C3O)C2O)O1 (stereo not shown) [Gentamicin, reference compound]
- MIC [4]: 2 µg/mL and 4.2 µM
- MIC [5]: 0.6 µg/mL and 1.3 µM

Compound: O=C(O)C(=O)CC(=O)c1cc(OCc2ccccc2)cc(OCc2ccccc2)c1 [L-708,906]
- IC50 [6]: 0.5 ± 0.1 µM

Compound: COc1ccc(CCNc2ncc3c(=O)n(-c4cccc(F)c4)c(=O)[nH]c3n2)cc1OC [STL127705]
- IC50 [7]: 3.5 µM

Reference: paper PMC12428554, “Anti-HIV and Antimicrobial Activity of 7-Hydrazino-8-hydroxyquinoline-Based Aromatic Hydrazones” (International Journal of Molecular Sciences, 2025)
